Source: ChEMBL document CHEMBL1126104, “Synthesis and antiviral activity of some new S-adenosyl-L-homocysteine derivatives” (1992)
Converted amounts (≈) assume the structure as drawn.

Key:
[1] = test system: Human immunodeficiency virus 1; test: Antiviral activity against (HIV-1) in MT-4 cells Value in parentheses is inhibitory concentration for cell growth (MT-4); format: functional, MT4
Human alphaherpesvirus 2 = test: Antiviral activity against HSV-2(G) strain in primary rabbit kidney (PRK) / embryonic skin-muscle (E6SM) fibroblast culture lines; format: functional; conditions: Human alphaherpesvirus 2, Muscle tissue
Coxsackievirus B4 [2] = test: Antiviral activity against coxsackie B4 in Vero cell culture lines; format: functional; conditions: Enterovirus B
Coxsackievirus B4 [3] = test: Antiviral activity against coxsackie B4 virus in HeLa cell culture lines; format: functional; conditions: Enterovirus B
Semliki Forest virus = test: Antiviral activity against semliki forest virus (SFV) in Vero cell culture lines; format: functional
[4] = test system: Vesicular stomatitis virus; test: Antiviral activity against vesicular stomatitis virus (VSV) in HeLa cell culture lines,; format: functional
[5] = test system: Vesicular stomatitis virus; test: Antiviral activity against vesicular stomatitis virus (VSV) in primary rabbit kidney (PRK) / embryonic skin-muscle (E6SM) fibroblast culture lines; format: functional; conditions: Muscle tissue
Vaccinia virus = test: Antiviral activity against vaccinia virus (VV) in primary rabbit kidney (PRK) / embryonic skin-muscle (E6SM) fibroblast culture lines; format: functional; conditions: Orthopoxvirus vaccinia, Muscle tissue
Human alphaherpesvirus 1 = test: Antiviral activity against HSV-1(KOS) strain in primary rabbit kidney (PRK) / embryonic skin-muscle (E6SM) fibroblast culture lines; format: functional; conditions: Human alphaherpesvirus 1, Muscle tissue
Poliovirus 1 = test: Antiviral activity against polio virus type 1 in HeLa cell culture lines; format: functional; conditions: Enterovirus C
Human respirovirus 3 = test: Antiviral activity against parainfluenza virus type 3 in Vero cell culture lines; format: functional
Sindbis virus = test: Antiviral activity against sindbis virus in Vero cell culture lines; format: functional
[6] = test system: Mammalian orthoreovirus 1; test: Antiviral activity against reovirus type 1 in Vero cell culture lines; format: functional

SMILES | MIC [1] [µg/mL] | MIC (Human alphaherpesvirus 2) [µg/mL] | MIC (Coxsackievirus B4 [2]) [µg/mL] | MIC (Coxsackievirus B4 [3]) [µg/mL] | MIC (Semliki Forest virus) [µg/mL] | MIC [4] [µg/mL] | MIC [5] [µg/mL] | MIC (Vaccinia virus) [µg/mL] | MIC (Human alphaherpesvirus 1) [µg/mL] | MIC (Poliovirus 1) [µg/mL] | MIC (Human respirovirus 3) [µg/mL] | MIC (Sindbis virus) [µg/mL] | MIC [6] [µg/mL]
CC(C)(C)C(=O)ONC(CCSC[C@H]1OC(n2ccc3c(N)ncnc32)[C@H](O)[C@@H]1O)C(=O)OCC[Si](C)(C)C (some centres undefined) | > 8 | > 10 | 70 (≈ 120 µM) | > 40 | > 40 | > 40 | > 10 | 2 (≈ 3.43 µM) | > 10 | > 40 | > 40 | > 40 | > 40
Nc1ncnc2c1ncn2[C@@H]1O[C@H](CSCCC(N)C(=O)O)C[C@H]1O (some centres undefined) | > 100 | > 100 | > 200 | > 200 | > 100 | > 200 | > 100 | > 200 | > 100 | > 200 | > 200 | > 200 | > 200
COC(=O)C(N)CCSC[C@H]1OC(n2ccc3c(N)ncnc32)[C@H](O)[C@@H]1O (some centres undefined) | > 20 | 20 (≈ 50.3 µM) | > 100 | > 200 | > 200 | 20 (≈ 50.3 µM) | 20 (≈ 50.3 µM) | 4 (≈ 10.1 µM) | > 100 | > 200 | > 200 | > 200 | > 200
CC(C)(C)C(=O)OCn1nc([C@@H]2O[C@H](CO)C[C@H]2O)c2ncnc(N)c21 | > 20 | > 100 | > 100 | > 100 | > 100 | > 100 | > 100 | > 100 | > 100 | > 100 | > 100 | > 100 | > 100
CCCOC(=O)C(CCSC[C@H]1OC(n2ccc3c(N)ncnc32)[C@H](O)[C@@H]1O)NC(C)=O (some centres undefined) | > 4 | 20 (≈ 42.8 µM) | 20 (≈ 42.8 µM) | 20 (≈ 42.8 µM) | > 40 | 20 (≈ 42.8 µM) | 7 (≈ 15 µM) | 7 (≈ 15 µM) | 40 (≈ 85.6 µM) | 40 (≈ 85.6 µM) | 20 (≈ 42.8 µM) | > 40 | 15 (≈ 32.1 µM)
CC(C)OC(=O)C(CCSC[C@H]1OC(n2ccc3c(N)ncnc32)[C@H](O)[C@@H]1O)NC(=O)C(F)(F)F (some centres undefined) | > 4 | 10 (≈ 19.2 µM) | > 50 | > 100 | > 100 | 20 (≈ 38.3 µM) | 5 (≈ 9.59 µM) | 1 (≈ 1.92 µM) | 20 (≈ 38.3 µM) | > 100 | > 50 | > 70 | > 50
Nc1nccc2ncn([C@H]3C[C@H](O)[C@@H](CO)O3)c12 | > 50 | 100 (≈ 400 µM) | > 400 | > 200 | > 400 | > 200 | > 200 | > 200 | 150 (≈ 599 µM) | > 200 | > 400 | > 400 | > 400
CCCCOC(=O)C(N)CCSC[C@H]1OC(n2ccc3c(N)ncnc32)[C@H](O)[C@@H]1O (some centres undefined) | > 1.6 | > 10 | > 200 | > 40 | > 200 | 7 (≈ 15.9 µM) | 20 (≈ 45.5 µM) | 2 (≈ 4.55 µM) | 20 (≈ 45.5 µM) | > 100 | 150 (≈ 341 µM) | > 200 | 70 (≈ 159 µM)
CC(=O)NC(CCSC[C@H]1OC(n2ccc3c(N)ncnc32)[C@H](O)[C@@H]1O)C(=O)O (some centres undefined) | > 200 | > 200 | > 400 | > 400 | > 400 | > 400 | > 200 | 7 (≈ 16.5 µM) | > 200 | > 400 | > 400 | > 400 | > 700
Nc1nccc2c1ncn2[C@@H]1O[C@H](CO)C[C@H]1O | > 20 | 70 (≈ 280 µM) | > 100 | > 40 | > 100 | > 40 | > 100 | > 40 | > 100 | > 40 | > 100 | > 100 | > 100
NC(=O)c1ncn([C@@H]2O[C@H](CO)[C@@H](O)[C@H]2O)n1 [RIBAVIRIN] | > 20 | > 400 | > 70 | 40 (≈ 164 µM) | 200 (≈ 819 µM) | 20 (≈ 81.9 µM) | 50 (≈ 205 µM) | 30 (≈ 123 µM) | > 400 | 70 (≈ 287 µM) | 70 (≈ 287 µM) | 200 (≈ 819 µM) | 40 (≈ 164 µM)
Nc1nccc2c1ncn2[C@@H]1O[C@H](CSCCC(N)C(=O)O)C[C@H]1O (some centres undefined) | > 100 | > 400 | > 400 | > 400 | > 400 | > 400 | > 200 | > 400 | > 400 | > 400 | > 400 | > 400 | > 400
Nc1ncnc2c1ncn2[C@@H]1O[C@H](CO)C[C@H]1O [CORDYCEPIN] | > 4 | > 40 | > 100 | > 100 | > 100 | > 100 | > 40 | > 100 | > 40 | > 100 | > 100 | > 100 | > 100
Nc1ncnc2c1ncn2[C@H]1C[C@H](O)[C@@H](CO)O1 [DEOXYADENOSINE] | > 20 | 100 (≈ 398 µM) | > 200 | > 200 | > 200 | > 200 | > 200 | 150 (≈ 597 µM) | > 150 | > 200 | > 200 | > 200 | > 200
CCOC(=O)C(CCSC[C@H]1OC(n2ccc3c(N)ncnc32)[C@H](O)[C@@H]1O)NC(=O)C(F)(F)F (some centres undefined) | > 4 | 10 (≈ 19.7 µM) | 7 (≈ 13.8 µM) | 20 (≈ 39.4 µM) | > 40 | 4 (≈ 7.88 µM) | 2 (≈ 3.94 µM) | 7 (≈ 13.8 µM) | 7 (≈ 13.8 µM) | 20 (≈ 39.4 µM) | > 20 | > 20 | > 20
Nc1ncnc2c1ncn2[C@@H]1O[C@H](CCl)C[C@H]1O | > 100 | > 100 | > 40 | > 200 | > 40 | > 200 | > 400 | > 200 | > 200 | > 200 | > 40 | > 40 | > 40
Nc1ncnc2c(C3O[C@H](CSCCC(N)C(=O)O)[C@@H](O)[C@H]3O)n[nH]c12 (some centres undefined) | > 4 | 400 (≈ 1040 µM) | > 100 | > 400 | > 100 | 150 (≈ 390 µM) | 20 (≈ 52 µM) | 100 (≈ 260 µM) | 200 (≈ 520 µM) | > 400 | 30 (≈ 78 µM) | > 100 | > 100
Nc1ncnc2c([C@H]3C[C@@H](O)[C@@H](CO)O3)n[nH]c12 | > 100 | > 400 | 300 (≈ 1190 µM) | > 400 | > 400 | > 400 | > 400 | > 400 | > 400 | > 400 | > 400 | > 400 | > 400
CCCOC(=O)C(N)CCSC[C@H]1OC(n2ccc3c(N)ncnc32)[C@H](O)[C@@H]1O (some centres undefined) | > 20 | 2 (≈ 4.7 µM) | 70 (≈ 165 µM) | > 100 | > 150 | 20 (≈ 47 µM) | 2 (≈ 4.7 µM) | 1 (≈ 2.35 µM) | 10 (≈ 23.5 µM) | > 100 | > 70 | > 70 | > 70
COC(=O)C(CCSC[C@@H]1C[C@@H](O)[C@H](n2ccc3c(N)ncnc32)O1)NC(=O)C(F)(F)F (some centres undefined) | > 100 | > 200 | > 200 | > 200 | > 400 | 300 (≈ 628 µM) | 20 (≈ 41.9 µM) | 70 (≈ 147 µM) | > 200 | > 400 | > 200 | > 400 | 40 (≈ 83.8 µM)
CC(C)OC(=O)C(N)CCSC[C@H]1OC(n2ccc3c(N)ncnc32)[C@H](O)[C@@H]1O (some centres undefined) | > 1.6 | > 10 | > 100 | > 40 | > 100 | 7 (≈ 16.5 µM) | 7 (≈ 16.5 µM) | 0.2 (≈ 0.47 µM) | > 10 | > 100 | 20 (≈ 47 µM) | > 40 | > 40
CC(C)(C)C(=O)OCn1nc([C@@H]2O[C@H](CO)[C@@H](O)[C@H]2O)c2ncnc(N)c21 | > 0.8 | > 40 | > 10 | > 40 | > 10 | 30 (≈ 78.7 µM) | 30 (≈ 78.7 µM) | > 40 | 30 (≈ 78.7 µM) | > 40 | 1 (≈ 2.62 µM) | > 10 | 3 (≈ 7.87 µM)
Nc1ncnc2c1ccn2C1O[C@H](CSCCC(NC(=O)C(F)(F)F)C(=O)O)[C@@H](O)[C@H]1O (some centres undefined) | > 20 | > 200 | > 400 | > 400 | > 400 | > 400 | > 200 | 20 (≈ 41.7 µM) | > 200 | > 400 | > 400 | > 400 | > 400
